The subject of one experiment is cyclin D1. Description: Cyclin D1 expression (qRT-PCR, western blot), A549. The experiment is classed as cell-based, human. How it is done:
FIGS. 5A-5G illustrate NGI-1 induces G1 arrest and senescence in EGFR addicted tumor cells. FIG. 5A illustrates cell cycle distribution of PC9 cells after 24 h NGI-1 treatment for 24 h determined by flow cytometry. […] FIG. 5B illustrates cell cycle distribution of A549 cells after 24 h NGI-1 treatment for 24 h determined by flow cytometry. FIG. 5C illustrates western blot time course of cyclin D1 expression in PC9 and A549 cells after NGI-1 treatment. FIG. 5D illustrates quantitative real-time PCR analysis of PC9 and A549 cells. A time course of cyclin D1 expression levels relative to GAPDH is represented. […] FIG. 5F illustrates senescence of PC9 cells explored by: cell autofluorescence, measured by flow cytometry using a detector for PE/YFP; lipofuscin accumulation, detected by confocal laser scanning microscopy using an excitation laser of 405 nm with acquired signals from spectrums of yellow 575-620 nm; and morphology changes, enlarged vs. flattened. […] Significance was calculated using a T test (*p<0.05. **p<0.01). FIG. 5G illustrates senescence of A549 cells explored by: cell autofluorescence, measured by flow cytometry using a detector for PE/YFP; lipofuscin accumulation, detected by confocal laser scanning microscopy using an excitation laser of 405 nm with acquired signals from spectrums of yellow 575-620 nm; and morphology changes, enlarged vs. flattened. […]

The next experiment relates to EGFR. Description: EGFR western blot gel mobility, H3255 cells. It is filed as cell-based. To be noted: lung adenocarcinoma cells, 10 μM NGI-1, 24 h. As to the method: FIGS. 3A-3F illustrate the finding that NGI-1 disrupts EGFR glycosylation and cell surface expression. FIG. 3A illustrates EGFR western blots from H3255 treated with or without 10 μM NGI-1 for 24 h. Molecular weight size shifts are compared to PNGase digestion and tunicamycin treatment alone. FIG. 3B illustrates EGFR localization in H3255 cells after 24 h 10 μM NGI-1 treatment analyzed by western blot. Plasma membrane proteins present on the surface of H3255 cells were biotinylated using a non-permeable form of biotin, sulfo-NHS—SS-biotin, and precipitated by streptavidin agarose beads. Biotin-labeled plasma membrane proteins and the fraction of non-biotinylated proteins were subjected to SDS-PAGE and analyzed by western blot against EGFR. FIG. 3C illustrates EGFR localization in H3255 cells after 24 h 10 μM NGI-1 treatment analyzed by confocal microscopy. H3255 cells were subjected to immunofluorescence for EGFR protein (red) counterstained with (CRT; green) and colocalization was determined by confocal microscopy. Nuclei were counterstained with ToPro3 (cyan). […] Bar, 10 μm. FIG. 3D illustrates quantification of colocalization using Image J Colormap Software. […] ITB1 localization after 10 μM NGI-1 for 48 h analyzed by (FIG. 3E) surface biotinylation (FIG. 3F) confocal microscopy (green). […]

This note sets out measurements from patent publication US11219625B2, “Inhibitors of N-linked glycosylation and methods using same” (YALE UNIVERSITY, priority 2015, dated 2022).

Turning to `Cc1cnc(NC(=O)c2cc(S(=O)(=O)N(C)C)ccc2N2CCCC2)s1` [NGI-1, 5-(N,N-Dimethylsulfamoyl)-N-(5-methylthiazol-2-yl)-2-(pyrrolidin-1-yl)benzamide], the “cyclin D1 mRNA and protein levels” value with cyclin D1 is given as “not significantly affected”. Besides, in the experiment with EGFR, the “EGFR N-linked glycosylation (molecular weight on SDS-PAGE)” value was “blocked EGFR N-linked glycosylation”.
